What was measured:
[1] = Long-term release kinetics of taurolidine from fibrin sealant matrix over 14 days; format: physicochemical; settings: for percentage of taurolidine released from the matrix: irrespective of loading concentrations
Method: The long-term release kinetics of taurolidine was investigated by homogenously suspending different concentrations of taurolidine in the two components of the fibrin sealant in such a way that final concentrations (mg/ml) of 10, 40 and 80 mg/ml were achieved per 400 μl of fresh PBS at 24-hour intervals over a period of 14 days. The supernatants from the wells containing identical taurolidine concentrations were pooled. The taurolidine concentrations in the supernatants were determined.

[2] = tested on: glial tumor cell lines LN18, LN229, U87MG, and ex vivo cells from a freshly isolated glioblastoma; assay: Crystal violet assay of tumor cells incubated with taurolidine released from the matrices; format: cell-based
Method: To determine whether the antineoplastic activity of taurolidine was affected by embedding in the matrix, the glial tumor cell lines LN18, LN229, U87MG, and ex vivo cells from a freshly isolated glioblastoma were incubated with taurolidine released from the matrices at different periods.
The LN18, LN229, and U87MG tumor cells and ex vivo cells from a glioblastoma were seeded in […] plastic cell culture flasks until a cell confluency of 80% was reached. The resulting cell suspensions were centrifuged at 1200 rpm for 5 min and then diluted to yield cell suspensions containing 5×10^4 cells per ml. Aliquots of 200 μl of the cell suspensions were pipetted into the wells of a 96-multiwell plate.
After 12 hours when the cells were adherent the medium was removed and replaced by fresh medium. The cells were incubated for 24 hours and the taurolidine solution released at different time intervals from the matrices loaded with different taurolidine concentrations. Tumor cells incubated with the same volume of supernatant from fibrin sealant matrix without taurolidine were used as negative controls. Identically treated cells to which Fas-ligand at a concentration of 25% was added served as positive controls.
After incubation for 24 hours, the supernatants were removed and 100 μl of crystal violet staining solution (0.5% crystal violet in 19.5% methanol and 80% distilled water) added. The solution was removed after 10 min and residual dye rinsed off with tap water. The plates were then left to air-dry for 12 hours followed by counting in a microplate counter at 540 nm.

[3] = cited from earlier work
[4] = Taurolidine release from fibrin sealant matrix into PBS supernatant over 7 days; format: physicochemical; settings: irrespective of initial taurolidine concentration, 37° C.
Method: Different concentrations of taurolidine were homogenously suspended in the two components of the fibrin sealant. The two components were then mixed in wells of a 24-multiwell plate to prepare matrixes with identical total volumes of 400 μl per well containing final taurolidine concentrations of 10, 20, 40 and 80 mg/ml. The resulting thickness of the matrix was 2 mm ±0.4 mm. In addition, matrices with volumes of 400 μl and 800 μl containing 10 mg/ml or 40 mg/ml of taurolidine were prepared to investigate the effect of matrix size on taurolidine release. […] Matrices of identical volume and thickness without taurolidine served as controls. Supernatants of 400 μl phosphate-buffered saline (PBS) were added to each well after solidification. The multiwell plates were incubated at 37° C. The supernatants were pipetted off at 24-hour intervals over a period of 7 days and replaced by identical amounts of fresh PBS.

## O=S1(=O)CCN(CN2CCS(=O)(=O)NC2)CN1 [Taurolidine, Bis-(1,1-dioxoperhydro-1,2,4-thiadiazinyl-4)methane]
[1]; after 10 days
  percentage of taurolidine released from the matrix: 98.93%±0.33
[1]; after 14 days
  percentage of taurolidine released from the matrix: 99.99%±0.02
[1]; loading concentrations of 25 mg/ml or above
  period over which antineoplastically effective amounts of taurolidine were released: 14 days
[1]; loading concentrations of 50 mg/ml or higher, day 14
  taurolidine released on day 14: over 100 μg/ml
[2]; taurolidine released from matrices, 24 hours incubation
  proliferation of tumor cell lines and ex vivo glioblastoma cells: inhibited in an concentration-dependent manner
[2]; taurolidine released on day 3, loading concentration 100 mg/ml
  reduction of cell counts: at least 60%
[2]; taurolidine released on day 13 from TFM, initial loading concentration 10 mg/ml
  effect on tumor cell proliferation: no further effects on tumor cell proliferation
[3]
  water soluble up to: up to 2%
[4]; within 6 days
  percentage of total taurolidine released from the matrix: 75.2±6.64%
[4]; within the first 2 days
  percentage of total taurolidine released from the matrix: 54.7±1.44%
